Experimental data published in PMC7509637 (Advanced Science, 2020).
Entries after “also recorded” stand apart in the source; their conditions may differ.

B1: FapCS: FapC seeds obtained by sonication of mature FapC fibrils (P. aeruginosa) (protein)
chain: GNEGGWHPPKPNPQSNNKGGATALVVDTQQNYNNKVSNFGTLNNASVSGSIKDASGNVGVNVAAGDNNQQANAAALASADASFVFGTATASTSVLQSGYGNTLNNYSNPNTASLSNSANNVSGNLGVNVAAGNFNQQKNDLAAAVSNGQYSTAGSAASQTSTGNTTVNSANYAYGGTYVSLKLNADGSYKGTSDQIGDVYLDTWEGQTHPGGSNTGHIDVDSQAQGAKDLNHDGGAFAFKEKGDVDLKGTVSGFIPAIVGFKTPVTNNASLSNSLQNVSGNVGVNIAAGGGNQQSNSLSIAAGCSSCPAGGESLGF

Experiments:
zebrafish larvae = test: Congo red imaging of Aβ fibrillization in zebrafish larval brain; type: in vivo, zebrafish (AB, Danio rerio); conditions: for Congo red fluorescence / Aβ fibrillization in larval brain (in words): 2 d postinjection
Experimental: Aβ (HFIP‐treated) was dissolved in PBS (pH 7.4) to make a stock solution. Aβ (100 × 10^−15 M) was injected into the cerebroventricular space of one week old zebrafish larvae. Aβ with FapCS was injected at a 10:1 molar ratio (Aβ:FapCS, 100 × 10^−15:10 × 10^−15 M). PBS alone and untreated larvae were used as negative controls. Zebrafish larvae were anesthetized by adding a few drops of tricaine (0.4%) in the petri dish. When larvae stopped to move in response to the tapping stimuli, the larvae were transferred to an injection template made from 1% agarose gel. Microinjection of Aβ was performed with a calibrated microneedle and pneumatic microinjection system (PV830 WPI), under a stereomicroscope. The injection pressure was set to 20 psi, the injection volume was 10 nL, and the injections were made with a micromanipulator. The tip of the needle was inserted into the ventricular space of larvae and penetration across the soft skin of dorsal tissue (central meeting point of both telencephalons) was not more than 0.3 mm. After microinjection, the larvae were transferred to the fresh Holtfreter's buffer in petri dish and incubated at 28 ± 0.5 °C for further observation.
To monitor Aβ fibrillization in the brain of zebrafish larvae, the Aβ or Aβ + FapCS injected larvae were further injected with Congo red 2 days or one week posttreatment. Congo red (100 × 10^−15 M) was injected to the cerebroventricular space of the zebrafish larvae and placed back in Holtfreter's buffer (1 h) to allow staining of Aβ plaques in the brain tissues of larvae and elimination of excess dye. Whole mount imaging of zebrafish larvae was performed via the brightfield and red fluorescence channels of a fluorescence microscope. All images were captured under the same exposure and intensity settings of the microscope. Relative red fluorescence intensities were measured from the images by using Fiji ImageJ and represented as fraction of 1. Aβ at one week was considered as a positive control (100% or fraction 1) while buffer only was considered as a negative control (0% or fraction 0).

adult zebrafish = test: Behavioral pathology of adult zebrafish (swimming); type: in vivo, zebrafish (AB, Danio rerio)
Experimental: Adult zebrafish (10 months) were employed for the study. Prior to microinjection, adult zebrafish were anesthetized by placing them in a beaker filled with ice‐chilled tricaine (0.01% in Holtfreter's buffer) for 20 s. The samples of Aβ alone and Aβ with FapCS or bacterial biofilm fragments were injected to the cerebroventricular space of adult fish with a 1 µL Hamilton glass syringe. The concentration of the Aβ peptide was 40 × 10^−6 M (in PBS, pH 7.4) while FapCS or biofilm fragments were included at a 10:1 ratio (Aβ:FapCS or biofilm fragments). The needle penetrated between left and right telencephalon for not more than 1 mm and injection volume was 1 µL. The syringe was washed with ethanol and PBS in between the injections. The injections were made under a stereomicroscope and fish were held in place with forceps. After microinjection, the fish was placed back in the water tank for recovery.
The behavioral pathology of the adult fish was observed after 4 d and 2 weeks of microinjection. The behavioral pathology of movement frequency and traveled distance was recorded with a zebrabox (Viewpoint) in a 1 L swimming tank. For cognitive function test, the tank was hypothetically divided into two parts of arena 1 and arena 2, and arena 2 was labeled by pasting a red paper at the bottom of the tank. The behavior of the untreated fish was recorded as positive control, in both arenas. Then fish from each sample were trained to avoid swimming in arena 2 by shocking with a 9 V battery electrodes, whenever the fish swim into arena 2. The fish were allowed to familiarize with the tank for 30 min and then trained for 20 min. After training, the swimming behavior of the fish was recorded in whole tank and then analyzed for arena 1 versus arena 2 with software EthnoVision X1.
The observations were made for 1 min with three fish per samples. The measurements were made three times in a day and then averaged together. […] Movement trajectories were also recorded with the instrument's camera.

Aβ = biological target: T1, Aβ (Homo sapiens, UniProt P05067); test: Static light scattering (SLS) of Aβ fibrillar growth; type: biochemical; conditions: ratio as for ThT assay, Malvern Zetasizer Nano, n = 3
T1 construct: purchased Anaspec Inc
Experimental: Increases in the size of Aβ in the presence and absence of FapCS or bLgS were monitored by SLS. Solution of Aβ with FapCS or bLgS, at a similar ratio as for the ThT assay, was prepared and incubated. SLS measurements were performed at different time intervals using a Malvern Zetasizer Nano. The parameters were fixed at 7 for attenuator and 4.20 mm for cell position. Quartz cells with low volume capacity (100 µL) were used. The light scattering intensities (kilo counts per sec) and the refractive indices of the samples, buffer alone and toluene were measured.

Aβ amyloid fibrils = test: STED microscopy of FapCS with Aβ fibrils; conditions: FapCS labeled with Alexa 647, ThT-labeled Aβ fibrils, 12 h
Experimental: STED microscopy was employed to study the interaction of FapCS with Aβ. FapCS was labeled with Alexa 647 NHS ester via carbodiimide coupling reaction (1:1 molar ratio) in PBS (pH 8) for a duration of 5 h. The labeled fragments were purified via centrifugal filters ([…]). Labeled FapCS was incubated with Aβ at the same molar ratio as for the ThT assay. After 12 h of incubation, the FapCS‐seeded Aβ fibrils were incubated with ThT dye (100 × 10^−6 M) for 30 min to label the Aβ backbone and then purified via centrifugal filters ([…]). A drop of 20 µL of the sample was placed on a poly‐L‐lysine coated coverslip, flipped on a glass slide and then imaged under STED microscope. Alexa and ThT fluorescence were imaged under the excitations of 647 and 488 nm and emissions of 665 and 525 nm, respectively.

[1] = 2 weeks postinjection, Aβ 1 µL, 40 × 10^−6 M, n = 3 per group, three groups

Molecule	Congo red fluorescence / Aβ fibrillization in larval brain (in words) (zebrafish larvae)	distance traveled (adult zebrafish; [1]) [cm per min]	movement frequency (adult zebrafish; [1]) [per min]	swimming behavior (in words) (adult zebrafish; 4 d postinjection)	Aβ fibrillar growth by SLS (Aβ)	interaction with Aβ fibrils by STED (Aβ amyloid fibrils)	Congo red fluorescence in larval brain (in words) (zebrafish larvae; one week postinjection, Figure S12A)
amyloid beta [Aβ]	no fibrillization was observed	57 ± 6.9	6 ± 2	did not produce significant difference in the swimming behavior compared to the buffer control	–	–	–
B1	insignificant fluorescence was observed; also recorded: did not show any retention of Congo red fluorescence in the brain	–	–	–	significantly more rapid Aβ fibrillar growth; also recorded: rapid growth in the size of Aβ fibrils	adsorption of FapCS (labeled with Alexa 647) onto Aβ amyloid fibrils; also recorded: intercalation of FapCS inside the Aβ fibrils; also recorded: adsorbed onto or integrated into Aβ fibrils	insignificant fluorescence was observed
